Key:
[1] = molecular target: hGYS1 enzyme (recombinant hGYS1/GN1 protein) (Homo sapiens (Human), UniProt P13807); assay: GYS1 coupled enzyme assay (PK/LDH); type: biochemical; conditions: hGYS1/GN1 50 nM, UDP-Glucose 0.8 mM, G6P 1 mM; geometric mean of at least 2 runs
[2] = molecular target: hGYS2 enzyme (recombinant hGYS2/GN1 protein) (Homo sapiens (Human), UniProt P54840); assay: GYS2 coupled enzyme assay (PK/LDH); type: biochemical; conditions: geometric mean of at least 2 assay runs on separate days, read-out: Avg_IC50
Chain of hGYS2 enzyme (recombinant hGYS2/GN1 protein) (P54840 whole entry): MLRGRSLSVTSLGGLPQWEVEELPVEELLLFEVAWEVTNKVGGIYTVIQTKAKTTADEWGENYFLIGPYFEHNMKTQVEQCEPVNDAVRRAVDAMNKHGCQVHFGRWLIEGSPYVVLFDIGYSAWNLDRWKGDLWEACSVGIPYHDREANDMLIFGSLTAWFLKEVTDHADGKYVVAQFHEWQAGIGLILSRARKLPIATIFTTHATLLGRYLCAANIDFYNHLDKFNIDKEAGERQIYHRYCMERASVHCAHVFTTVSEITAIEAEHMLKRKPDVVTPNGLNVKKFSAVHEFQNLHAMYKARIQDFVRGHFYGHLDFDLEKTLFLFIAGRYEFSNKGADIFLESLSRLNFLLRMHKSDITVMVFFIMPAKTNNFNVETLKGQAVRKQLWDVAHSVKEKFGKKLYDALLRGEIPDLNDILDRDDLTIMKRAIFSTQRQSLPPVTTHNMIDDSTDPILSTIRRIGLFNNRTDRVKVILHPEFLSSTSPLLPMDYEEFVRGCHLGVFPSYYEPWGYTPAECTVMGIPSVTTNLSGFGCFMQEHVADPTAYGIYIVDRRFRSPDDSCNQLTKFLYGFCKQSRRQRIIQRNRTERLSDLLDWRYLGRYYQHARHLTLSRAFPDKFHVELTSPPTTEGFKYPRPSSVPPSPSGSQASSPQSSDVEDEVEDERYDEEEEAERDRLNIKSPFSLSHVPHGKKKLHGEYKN
Chain of hGYS2 enzyme (recombinant hGYS2/GN1 protein) (P46976 whole entry partner): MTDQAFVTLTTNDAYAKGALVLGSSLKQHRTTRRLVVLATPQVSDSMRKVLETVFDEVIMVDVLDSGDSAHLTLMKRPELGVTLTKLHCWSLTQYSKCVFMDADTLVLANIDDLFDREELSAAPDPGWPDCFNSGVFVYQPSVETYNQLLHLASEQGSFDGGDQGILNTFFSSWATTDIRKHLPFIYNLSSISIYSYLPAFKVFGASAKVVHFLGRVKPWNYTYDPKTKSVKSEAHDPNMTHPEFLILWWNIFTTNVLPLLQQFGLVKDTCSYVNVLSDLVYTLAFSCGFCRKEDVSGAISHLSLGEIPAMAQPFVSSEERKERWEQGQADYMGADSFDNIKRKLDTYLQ
In short: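 Recombinant hGYS2/GN1 (200 nM) with 2 mM UDP-glucose, 0.2% rabbit liver glycogen, 2 mM glucose-6-phosphate; UDP coupled via PK/LDH (2 mM PEP, 0.6 mM NADH). Buffer 50 mM Tris pH 7.5, 2 mM MgCl2, 100 mM KCl, 2.5% DMSO. A340 slope over 10 min; IC50 from Hill fit of duplicates.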

Chain of hGYS1 enzyme (recombinant hGYS1/GN1 protein) (P13807 whole entry): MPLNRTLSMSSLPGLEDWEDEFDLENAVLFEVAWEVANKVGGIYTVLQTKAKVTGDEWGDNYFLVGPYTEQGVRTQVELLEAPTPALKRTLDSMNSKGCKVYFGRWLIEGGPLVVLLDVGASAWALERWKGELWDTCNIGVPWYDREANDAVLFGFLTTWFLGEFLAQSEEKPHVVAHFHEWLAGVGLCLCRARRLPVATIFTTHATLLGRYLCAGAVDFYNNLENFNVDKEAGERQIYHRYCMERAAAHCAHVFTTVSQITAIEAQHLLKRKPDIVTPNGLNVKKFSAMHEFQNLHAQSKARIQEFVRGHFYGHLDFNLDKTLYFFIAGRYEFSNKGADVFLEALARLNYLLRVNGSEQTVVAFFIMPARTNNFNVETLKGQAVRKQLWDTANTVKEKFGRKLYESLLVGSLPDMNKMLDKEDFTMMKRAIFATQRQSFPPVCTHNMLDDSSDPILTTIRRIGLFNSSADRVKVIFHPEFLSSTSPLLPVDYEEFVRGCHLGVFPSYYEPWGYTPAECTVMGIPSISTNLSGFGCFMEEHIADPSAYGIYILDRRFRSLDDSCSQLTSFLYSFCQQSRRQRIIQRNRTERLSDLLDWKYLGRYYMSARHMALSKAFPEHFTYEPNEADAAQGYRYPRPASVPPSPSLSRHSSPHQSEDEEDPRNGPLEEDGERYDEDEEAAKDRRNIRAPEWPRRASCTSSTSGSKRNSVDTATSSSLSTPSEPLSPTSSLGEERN
Chain of hGYS1 enzyme (recombinant hGYS1/GN1 protein) (P46976 whole entry partner): as the sequence (P46976 whole entry partner) above

## CC(C)c1ccc([C@@H](NC(=O)[C@@H]2C[C@@H](F)CN2C(=O)CCCc2ccncc2)c2ccccc2)cc1 [Compound 95, (2S,4R)-4-fluoro-N-[(S)-phenyl[4-(propan-2-yl)phenyl]methyl]-1-[4-(pyridin-4-yl)butanoyl]pyrrolidine-2-carboxamide]
[1]
  IC50: 130 nM
[2]
  IC50: > 100000 nM

## CC(=O)N1CC[C@@]2(C1)C(=O)NCC2C(=O)N1C[C@H](F)C[C@H]1C(=O)N[C@@H](c1ccccc1)c1ccc(C(C)C)cc1 (stereo in doubt) [Compound 6, (2S,4R)-1-[(4S,5R)-7-acetyl-7-oxo-2,7-diazaspiro[4.4]nonane-4-carbonyl]-4-fluoro-N-[(S)-phenyl[4-(propan-2-yl)phenyl]methyl]pyrrolidine-2-carboxamide]
[1]
  IC50: 211 nM
[2]
  IC50: > 100000 nM

## COc1nn(C)cc1C(=O)N1C[C@H](F)C[C@H]1C(=O)N[C@@H](c1ccccc1)c1ccc(C(C)C)cc1 [Compound 61, (2S,4R)-4-fluoro-1-(3-methoxy-1-methyl-1H-pyrazole-4-carbonyl)-N-[(S)-phenyl[4-(propan-2-yl)phenyl]methyl]pyrrolidine-2-carboxamide]
[1]
  IC50: 243 nM
[2]
  IC50: > 100000 nM

## CC(C)c1ccc(C(NC(=O)[C@@H]2C[C@@H](F)CN2C(=O)Cc2cnn[nH]2)c2ccc(N)nc2)cc1F (single isomer, unassigned) [Compound 620, (2S,4R)-N-[(R) or (S)-(6-aminopyridin-3-yl)[3-fluoro-4-(propan-2-yl)phenyl]methyl]-4-fluoro-1-[2-(1H-1,2,3-triazol-5-yl)acetyl]pyrrolidine-2-carboxamide]
[1]
  IC50: 142 nM
[2]
  IC50: > 100000 nM

## CC(C)c1ccc([C@@H](NC(=O)[C@@H]2C[C@@H](F)CN2C(=O)Cc2cscn2)c2ccccc2)cc1 [Compound 15, (2S,4R)-4-fluoro-N-[(S)-phenyl[4-(propan-2-yl)phenyl]methyl]-1-[2-(1,3-thiazol-4-yl)acetyl]pyrrolidine-2-carboxamide]
[1]
  IC50: 48 nM
[2]
  IC50: > 100000 nM

## CC(C)c1ccc([C@@H](NC(=O)[C@@H]2C[C@@H](F)CN2C(=O)C(C)c2cnn[nH]2)c2ccccc2)cc1F (single isomer, unassigned) [Compound 770, (2S,4R)-4-fluoro-N-[(S)-[3-fluoro-4-(propan-2-yl)phenyl](phenyl)methyl]-1-[(2S) or (2R)-2-(1H-1,2,3-triazol-5-yl)propanoyl]pyrrolidine-2-carboxamide]
[1]
  IC50: 62 nM
[2]
  IC50: > 100000 nM

## CC(C)c1ccc([C@@H](NC(=O)[C@@H]2C[C@@H](F)CN2C(=O)Cc2cnn(C)c2)c2ccccc2)cc1 [Compound 50, (2S,4R)-4-fluoro-1-[2-(1-methyl-1H-pyrazol-4-yl)acetyl]-N-[(S)-phenyl[4-(propan-2-yl)phenyl]methyl]pyrrolidine-2-carboxamide]
[1]
  IC50: 17 nM
[2]
  IC50: > 100000 nM

## CC(C)c1ccc([C@@H](NC(=O)[C@@H]2C[C@@H](F)CN2C(=O)CCc2cnc3[nH]ccc3c2)c2ccccc2)cc1 [Compound 134, (2S,4R)-4-fluoro-N-[(S)-phenyl[4-(propan-2-yl)phenyl]methyl]-1-(3-{1H-pyrrolo[2,3-b]pyridin-5-yl}propanoyl)pyrrolidine-2-carboxamide]
[1]
  IC50: 41 nM
[2]
  IC50: > 100000 nM

## CC(=O)N[C@@H](CCC(=O)O)C(=O)N1C[C@H](F)C[C@H]1C(=O)N[C@@H](c1ccccc1)c1ccc(C(C)C)cc1 [Compound 196, (4S)-4-acetamido-5-[(2S,4R)-4-fluoro-2-{[(S)-phenyl[4-(propan-2-yl)phenyl]methyl]carbamoyl}pyrrolidin-1-yl]-5-oxopentanoic acid]
[1]
  IC50: 143 nM
[2]
  IC50: > 100000 nM

## CC(C)c1ccc([C@@H](NC(=O)[C@@H]2C[C@@H](F)CN2C(=O)C2CCC(=O)NC2)c2ccccc2)cc1 (stereo partly drawn) [Compound 58, (2S,4R)-4-fluoro-1-(6-oxopiperidine-3-carbonyl)-N-[(S)-phenyl[4-(propan-2-yl)phenyl]methyl]pyrrolidine-2-carboxamide]
[1]
  IC50: 145 nM
[2]
  IC50: > 100000 nM

## CC(C)c1ccc([C@@H](NC(=O)[C@@H]2C[C@@H](F)CN2C(=O)Cc2ccnn2C)c2ccccc2)cc1F [Compound 337, (2S,4R)-4-fluoro-N-[(S)-[3-fluoro-4-(propan-2-yl)phenyl](phenyl)methyl]-1-[2-(1-methyl-1H-pyrazol-5-yl)acetyl]pyrrolidine-2-carboxamide]
[1]
  IC50: 27 nM
[2]
  IC50: > 100000 nM

## CC(C)c1ccc([C@@H](NC(=O)[C@@H]2C[C@@H](F)CN2C(=O)C2(C)COC2)c2ccccc2)cc1 [Compound 25, (2S,4R)-4-fluoro-1-(3-methyloxetane-3-carbonyl)-N-[(S)-phenyl[4-(propan-2-yl)phenyl]methyl]pyrrolidine-2-carboxamide]
[1]
  IC50: 235 nM
[2]
  IC50: > 100000 nM

## CC(C)c1ccc([C@@H](NC(=O)[C@@H]2C[C@@H](F)CN2C(=O)Cc2c[nH]cn2)c2ccccc2)cc1 [Compound 18, (2S,4R)-4-fluoro-1-[2-(1H-imidazol-4-yl)acetyl]-N-[(S)-phenyl[4-(propan-2-yl)phenyl]methyl]pyrrolidine-2-carboxamide]
[1]
  IC50: 45 nM
[2]
  IC50: > 100000 nM

## CC(C)c1ccc([C@@H](NC(=O)[C@@H]2C[C@@H](F)CN2C(=O)CCn2cncn2)c2ccccc2)cc1 [Compound 35, (2S,4R)-4-fluoro-N-[(S)-phenyl[4-(propan-2-yl)phenyl]methyl]-1-[3-(1H-1,2,4-triazol-1-yl)propanoyl]pyrrolidine-2-carboxamide]
[1]
  IC50: 185 nM
[2]
  IC50: > 100000 nM

## Cc1nnc(CCC(=O)N2C[C@H](F)C[C@H]2C(=O)N[C@@H](c2ccccc2)c2ccc(C(C)C)cc2)s1 [Compound 62, (2S,4R)-4-fluoro-1-[3-(5-methyl-1,3,4-thiadiazol-2-yl)propanoyl]-N-[(S)-phenyl[4-(propan-2-yl)phenyl]methyl]pyrrolidine-2-carboxamide]
[1]
  IC50: 64 nM
[2]
  IC50: > 100000 nM

## O=C(N[C@@H](c1ccccc1)c1ccc(C2CC2)c(F)c1)[C@@H]1C[C@@H](F)CN1C(=O)CCc1ncco1 [Compound 422, (2S,4R)-N-[(S)-(4-cyclopropyl-3-fluorophenyl)(phenyl)methyl]-4-fluoro-1-[3-(1,3-oxazol-2-yl)propanoyl]pyrrolidine-2-carboxamide]
[1]
  IC50: 166 nM
[2]
  IC50: > 100000 nM

## CC(C)c1ccc([C@@H](NC(=O)[C@@H]2C[C@@H](F)CN2C(=O)CN2CCOC2=O)c2ccccc2)cc1 [Compound 217]
[1]
  IC50: 96 nM
[2]
  IC50: > 100000 nM

## CC(C)c1ccc([C@@H](NC(=O)[C@@H]2CCCN2C(=O)CCC(N)=O)c2ccccc2)cc1 [Compound 213, (2S)-1-(3-carbamoylpropanoyl)-N-[(S)-phenyl[4-(propan-2-yl)phenyl]methyl]pyrrolidine-2-carboxamide]
[1]
  IC50: 282 nM
[2]
  IC50: > 100000 nM

## CC(C)c1ccc([C@@H](NC(=O)[C@@H]2C[C@@H](F)CN2C(=O)Cn2ccc3c(F)cccc32)c2ccccc2)cc1 [Compound 128, (2S,4R)-4-fluoro-1-[2-(4-fluoro-1H-indol-1-yl)acetyl]-N-[(S)-phenyl[4-(propan-2-yl)phenyl]methyl]pyrrolidine-2-carboxamide]
[1]
  IC50: 56 nM
[2]
  IC50: > 100000 nM

## Cc1ncccc1CCC(=O)N1C[C@H](F)C[C@H]1C(=O)N[C@@H](c1ccccc1)c1ccc(C(C)C)cc1 [Compound 102, (2S,4R)-4-fluoro-1-[3-(2-methylpyridin-3-yl)propanoyl]-N-[(S)-phenyl[4-(propan-2-yl)phenyl]methyl]pyrrolidine-2-carboxamide]
[1]
  IC50: 58 nM
[2]
  IC50: > 100000 nM

## Cc1cc(C)n(CCC(=O)N2C[C@H](F)C[C@H]2C(=O)N[C@@H](c2ccccc2)c2ccc(C(C)C)cc2)n1 [Compound 106, (2S,4R)-1-[3-(3,5-dimethyl-1H-pyrazol-1-yl)propanoyl]-4-fluoro-N-[(S)-phenyl[4-(propan-2-yl)phenyl]methyl]pyrrolidine-2-carboxamide]
[1]
  IC50: 186 nM
[2]
  IC50: > 100000 nM

## CC(C)c1ccc([C@@H](NC(=O)[C@@H]2C[C@@H](F)CN2C(=O)Cc2cnn[nH]2)c2ccc(F)cc2)cc1F [Compound 646, (2S,4R)-4-fluoro-N-[(S)-[3-fluoro-4-(propan-2-yl)phenyl](4-fluorophenyl)methyl]-1-[2-(1H-1,2,3-triazol-5-yl)acetyl]pyrrolidine-2-carboxamide]
[1]
  IC50: 48 nM
[2]
  IC50: > 100000 nM

## CC(C)c1ccc([C@@H](NC(=O)[C@@H]2C[C@@H](F)CN2C(=O)Cn2cccn2)c2ccccc2)cc1 (stereo in doubt) [Compound 221, (2S,4RS)-4-fluoro-N-[(S)-phenyl[4-(propan-2-yl)phenyl]methyl]-1-[2-(1H-pyrazol-1-yl)acetyl]pyrrolidine-2-carboxamide]
[1]
  IC50: 43 nM
[2]
  IC50: > 100000 nM

## CC(C)c1ccc([C@@H](NC(=O)[C@@H]2C[C@@H](F)CN2C(=O)Cn2ccncc2=O)c2ccccc2)cc1 [Compound 32, (2S,4R)-4-fluoro-1-[2-(2-oxo-1,2-dihydropyrazin-1-yl)acetyl]-N-[(S)-phenyl[4-(propan-2-yl)phenyl]methyl]pyrrolidine-2-carboxamide]
[1]
  IC50: 23 nM
[2]
  IC50: > 100000 nM

## CC(=O)N1CCC(C(=O)N2C[C@H](F)C[C@H]2C(=O)N[C@@H](c2ccccc2)c2ccc(C(C)C)cc2)C1 (stereo partly drawn) [Compound 147, (2S,4R)-1-(1-acetylpyrrolidine-3-carbonyl)-4-fluoro-N-[(S)-phenyl[4-(propan-2-yl)phenyl]methyl]pyrrolidine-2-carboxamide]
[1]
  IC50: 127 nM
[2]
  IC50: > 100000 nM

## CC(=O)N1CCC[C@H]1C(=O)N[C@@H](c1ccccc1)c1ccc(C(C)C)cn1 [Compound 245, (2S)-1-acetyl-N-[(S)-phenyl[5-(propan-2-yl)pyridin-2-yl]methyl]pyrrolidine-2-carboxamide]
[1]
  IC50: 1310 nM
[2]
  IC50: > 100000 nM
